Data taken from article PMC10709440, “High-throughput ligand profile characterization in novel cell lines expressing seven heterologous insect olfactory receptors for the detection of volatile plant biomarkers” (Scientific Reports, 2023).
Like-named read-outs stand apart in the source and are kept apart here.

Experiments:
Drosophila OR13a = molecular target: T1, Drosophila OR13a (Drosophila melanogaster, UniProt Q9VXL0); test: Calcium ion fluorescence (GCaMP6) assay, OR13a stable HEK293 cell line; format: cell-based; conditions: for OR13a response (VUAA1-normalized) at 1 μM / OR13a response (VUAA1-normalized) at 10 μM / OR13a response (VUAA1-normalized) at 100 μM: OR13a cell line; for OR13a response (VUAA1-normalized) at 1 μM: VOC concentration 1 μM; for OR13a response (VUAA1-normalized) at 10 μM: VOC concentration 10 μM; for OR13a response (VUAA1-normalized) at 100 μM: VOC concentration 100 μM
T1 construct: expressed in transfected cells
T1 sequence (Q9VXL0 1-418): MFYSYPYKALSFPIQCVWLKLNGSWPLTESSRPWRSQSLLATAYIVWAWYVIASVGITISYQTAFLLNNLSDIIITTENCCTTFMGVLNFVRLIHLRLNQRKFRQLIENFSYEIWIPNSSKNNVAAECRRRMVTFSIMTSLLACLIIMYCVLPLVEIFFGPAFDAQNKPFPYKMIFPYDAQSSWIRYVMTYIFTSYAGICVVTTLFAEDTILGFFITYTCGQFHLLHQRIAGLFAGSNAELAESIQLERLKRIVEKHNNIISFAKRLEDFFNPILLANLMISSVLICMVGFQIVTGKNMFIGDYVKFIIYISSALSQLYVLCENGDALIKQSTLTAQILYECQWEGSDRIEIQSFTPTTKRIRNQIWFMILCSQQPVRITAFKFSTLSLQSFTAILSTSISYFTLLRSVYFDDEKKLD
T1 sequence (Q9VNB5 1-486 partner): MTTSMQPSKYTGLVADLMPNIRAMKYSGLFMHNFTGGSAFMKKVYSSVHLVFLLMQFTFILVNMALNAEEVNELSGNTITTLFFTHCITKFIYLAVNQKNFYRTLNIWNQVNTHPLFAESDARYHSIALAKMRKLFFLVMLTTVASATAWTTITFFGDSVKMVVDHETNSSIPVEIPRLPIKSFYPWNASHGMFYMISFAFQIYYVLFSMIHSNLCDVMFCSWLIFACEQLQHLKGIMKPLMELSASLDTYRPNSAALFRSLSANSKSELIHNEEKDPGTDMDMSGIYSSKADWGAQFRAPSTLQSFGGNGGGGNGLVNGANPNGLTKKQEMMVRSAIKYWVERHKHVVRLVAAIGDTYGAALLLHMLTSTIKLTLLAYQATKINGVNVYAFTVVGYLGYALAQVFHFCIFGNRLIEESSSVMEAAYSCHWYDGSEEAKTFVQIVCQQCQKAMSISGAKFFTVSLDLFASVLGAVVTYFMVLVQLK
Method: (§1) These VUAA1 normalized ∆F values were used to compare the different receptors and ligands.
(§2) The concentration-dependent effect of the reference ligands on their cognate cell lines was examined in more detail. Twelve different ligand concentrations were measured on each cell line in an overall 0.01 μM to 100 μM concentration range with 5 repetitions with three technical replicates each time.
(§3) Twelve thousand to 18,000 cells were plated into each well of a black wall, transparent bottom 384-well microplate (Greiner) 48 h or 72 h before the measurements and were simultaneously treated with 1 μg/mL doxycycline. […] The plate has 24 columns, thus we could record responses in up to eight different cell lines in each plate. On the day of the experiment, the growth medium was replaced with 20 µL assay buffer/well (140 mM NaCl, 5 mM KCl, 2 mM CaCl2, 1 mM MgCl2, 5 mM HEPES-Na, 20 mM glucose, pH 7.3, 340 mOsm). […] Baseline fluorescence (F0) was recorded for 5 s, after which 7 µL VOC buffer (140 mM NaCl, 5 mM KCl, 2 mM CaCl2, 1 mM MgCl2, 5 mM HEPES-Na, 31 mM glucose, 0.1% DMSO, pH 7.3, 340 mOsm) was injected into each well in one row and the fluorescence response was recorded for an additional 30 s, at a rate of one read/sec. VOC solutions (VOC buffer with 4× concentration of the final measured VOC concentration, 9 µL/well was injected) were measured on the same wells in a second round with the same protocol. Each individual concentration of a specific VOC sample was recorded in three wells for the same cell line on the same microplate. The raw data were exported in xls file format, F0 and FMAX values, and the fluorescence intensity changes (∆F) were calculated in Excel (Microsoft) (Supplementary file Data summary.xlsx) using the following equation: ΔF=FMAX-F0/F0 (see also Fig. 1C). On each plate, we recorded the response of each cell line to 50 µM VUAA1. The average of these ∆F values of each cell line were used to calculate the VUAA1-normalized values for the rest of the plate, by dividing VOC response ∆F values by the average VUAA1 response ∆F value of the corresponding OR cell line. Each VOC-OR combination was measured three times as technical replicates. […] The average of these replicates were used as one ∆F and VUAA1-normalized ∆F in the following analysis.
(§4) In the next rows we tested the reference VOCs (or other VOCs known to activate the corresponding cell lines), in order to test if all cell lines are responsive. The remaining rows were used to test VOCs with unknown effect.
(§5) The recorded FMAX, F0, ∆F, VUAA1-normalized ∆F values, as well as the OR name, the name of the tested sample, and the final concentration for each well were copied into supplementary file Data summary.xlsx, that was used to summarize all the plates recorded. Here, the averages of the measurements were calculated for each receptor-VOC-concentration combination.

Drosophila OR98a = molecular target: T2, Drosophila OR98a (Drosophila melanogaster, UniProt Q9VAZ3); test: Calcium ion fluorescence (GCaMP6) assay, OR98a stable HEK293 cell line; format: cell-based; conditions: for OR98a response (VUAA1-normalized) at 1 μM / OR98a response (VUAA1-normalized) at 10 μM / OR98a response (VUAA1-normalized) at 100 μM: OR98a cell line; for OR98a response (VUAA1-normalized) at 1 μM: VOC concentration 1 μM; for OR98a response (VUAA1-normalized) at 10 μM: VOC concentration 10 μM; for OR98a response (VUAA1-normalized) at 100 μM: VOC concentration 100 μM
T2 construct: expressed in transfected cells
T2 sequence (Q9VAZ3 1-397): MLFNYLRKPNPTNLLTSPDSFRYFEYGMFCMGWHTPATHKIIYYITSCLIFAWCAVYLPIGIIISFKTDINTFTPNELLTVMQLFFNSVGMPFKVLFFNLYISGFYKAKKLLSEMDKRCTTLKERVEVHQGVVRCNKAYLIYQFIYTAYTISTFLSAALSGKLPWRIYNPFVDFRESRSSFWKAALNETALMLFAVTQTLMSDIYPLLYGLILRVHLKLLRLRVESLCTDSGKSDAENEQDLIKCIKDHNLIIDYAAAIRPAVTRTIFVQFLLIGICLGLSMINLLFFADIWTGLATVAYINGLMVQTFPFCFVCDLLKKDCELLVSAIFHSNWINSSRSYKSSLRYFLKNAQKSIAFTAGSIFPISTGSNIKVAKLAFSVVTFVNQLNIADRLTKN
T2 sequence (Q9VNB5 1-486 partner): T1 sequence (Q9VNB5 1-486 partner)
Method: as §1, §2, §3, §4, §5

[1] = HEK293, read-out: OR13a Average response (VUAA1-normalized), 1 μM VOC, 50 μM VUAA1 = 1, responses not exceeding 0.05 considered 0
[2] = HEK293, read-out: OR13a Average response (VUAA1-normalized), 10 μM VOC, 50 μM VUAA1 = 1, responses not exceeding 0.05 considered 0
[3] = HEK293, read-out: OR13a Average response (VUAA1-normalized), 100 μM VOC, 50 μM VUAA1 = 1, responses not exceeding 0.05 considered 0
[4] = ligand concentration 1 (unit not given), threshold 0.05, below shown as 0
[5] = ligand concentration 10 (unit not given), threshold 0.05, below shown as 0
[6] = ligand concentration 100 (unit not given), threshold 0.05, below shown as 0
[7] = HEK293, read-out: Average response
[8] = ligand concentration 1 (unit not given), 0.05 threshold, values below shown as 0
[9] = ligand concentration 10 (unit not given), 0.05 threshold, values below shown as 0
[10] = ligand concentration 100 (unit not given), 0.05 threshold, values below shown as 0
[11] = HEK293, read-out: OR13a response (VUAA1-normalized response), VOC concentration 1 μM
[12] = HEK293, read-out: OR13a response (VUAA1-normalized response), VOC concentration 10 μM
[13] = HEK293, read-out: OR13a response (VUAA1-normalized response), VOC concentration 100 μM
[14] = HEK293, read-out: OR98a response (VUAA1-normalized response)

SMILES	activation at 1 µM (Drosophila OR13a; [1]) [%]	activation at 10 µM (Drosophila OR13a; [2]) [%]	activation at 100 µM (Drosophila OR13a; [3]) [%]	OR13a response (VUAA1-normalized) at 1 μM (Drosophila OR13a)	OR13a response (VUAA1-normalized) at 10 μM (Drosophila OR13a)	OR13a response (VUAA1-normalized) at 100 μM (Drosophila OR13a)	DF norm AVERAGE OR13a (Drosophila OR13a; [4])	DF norm AVERAGE OR13a (Drosophila OR13a; [5])	DF norm AVERAGE OR13a (Drosophila OR13a; [6])	activation at 1 µM (Drosophila OR98a; [7]) [%]	activation at 10 µM (Drosophila OR98a; [7]) [%]	activation at 100 µM (Drosophila OR98a; [7]) [%]	OR98a response (VUAA1-normalized) at 1 μM (Drosophila OR98a)	OR98a response (VUAA1-normalized) at 10 μM (Drosophila OR98a)	OR98a response (VUAA1-normalized) at 100 μM (Drosophila OR98a)	DF norm AVERAGE OR98a (Drosophila OR98a; [4])	DF norm AVERAGE OR98a (Drosophila OR98a; [5])	DF norm AVERAGE OR98a (Drosophila OR98a; [6])	DF norm AVERAGE OR13a (Drosophila OR13a; [8])	DF norm AVERAGE OR13a (Drosophila OR13a; [9])	other results
CCCCCCCCC=O [nonanal]	0	0	0	0.00	0.00	0.00	0	0	0	0	0	5.5	0.00	0.00	0.055	0	0	0.05502			
Cc1ccccc1 [toluene]	0	0	0	0.00	0.00	0.00				0	4	3.33	0.00	0.00	0.00				0	0	DF norm AVERAGE OR13a (Drosophila OR13a; [10]): 0; DF norm AVERAGE OR98a (Drosophila OR98a; [8]): 0; DF norm AVERAGE OR98a (Drosophila OR98a; [9]): 0; DF norm AVERAGE OR98a (Drosophila OR98a; [10]): 0
CCCC(=O)OCC [ethyl butyrate]	0	0	0				0	0	0	3.54	0	6.6				0	0	0.06596			activation at 1 µM (Drosophila OR13a; [11]): 0%; activation at 10 µM (Drosophila OR13a; [12]): 0%; activation at 100 µM (Drosophila OR13a; [13]): 0%; activation at 1 µM (Drosophila OR98a; [14]): 0%; activation at 10 µM (Drosophila OR98a; [14]): 0%; activation at 100 µM (Drosophila OR98a; [14]): 6.6%
C=Cc1ccccc1 [styrene]	3	0		0.00	0.00	0.00				4.43	0	1.16	0.00	0.00	0.00				0	0	DF norm AVERAGE OR13a (Drosophila OR13a; [10]): 0; DF norm AVERAGE OR98a (Drosophila OR98a; [8]): 0; DF norm AVERAGE OR98a (Drosophila OR98a; [9]): 0; DF norm AVERAGE OR98a (Drosophila OR98a; [10]): 0
C=CC(C)(O)CCC=C(C)C (centres unmarked) [linalool]	1.21	4.47	0	0.00	0.00	0.00	0	0	0	0	0	4	0.00	0.00	0.00	0	0	0			
CCCCOC(=O)CC [butyl propanoate]	0	0	0				0	0	0												activation at 1 µM (Drosophila OR13a; [11]): 0%; activation at 10 µM (Drosophila OR13a; [12]): 0%; activation at 100 µM (Drosophila OR13a; [13]): 0%
